Measured values from patent US20120034164A1, “TRUNCATED CAR PEPTIDES AND METHODS AND COMPOSITIONS USING TRUNCATED CAR PEPTIDES” (Sanford-Burnham Medical Research Institute California, priority 2010, published 2012).
Where a SMILES comes first, the peptide text is derived from it. Bridges are numbered along the chain shown (N, C = ends). Roman numbers before positions name the chains, in order. Primed or numbered codes have the meaning given here. Where no end group is shown, it is not given here. The star is where a group is joined. 5FAM = O=C1OC2(c3ccc(O)cc3Oc3cc(O)ccc32)c2ccc(C(=O)*)cc21; 5FAM″ = 5-carboxyfluorescein label

How the values were obtained:
[1] = system: 4T1 tumors; experiment: In vivo tumor homing of FAM-labeled peptides (confocal imaging); settings: 200 μL of 1 mM FAM-peptide i.v.
Protocol: Mice bearing orthotopic tumors generated with 4T1 mouse breast cells were intravenously injected with the 200 μL of 1 mM fluorescamine (FAM)-conjugated CAR peptide. The circulation time was 1 hour.
Confocal images of sections of the tumor and normal organs from mice injected with the 200 μL of 1 mM FAM-tCAR peptide. The circulation time was 2 hours.
Confocal images of sections of the tumor and normal organs from mice injected with the 200 μL of 1 mM FAM-ARSKNK peptide. The circulation time was 1 hour.
Confocal images of sections of the tumor and normal organs from mice injected with the 200 μL of 1 mM FAM-KNKSRAC-CARSKNK peptide (SEQ ID NO:4). The circulation time was 1 hour.

[2] = system: SU5416/hypoxia-induced PAH lesions; format: in vivo, rat
Protocol: Adult male Sprague-Dawley rats (approx. 200 g) were injected subcutaneously with SU5416 (20 mg/kg body weight; SUGEN Inc, South San Francisco, Calif.), which was suspended in carboxymethylcellulose (0.5% carboxymethylcellulose sodium, 0.9% sodium chloride, 0.4% polysorbate, 0.9% benzyl alcohol in deionized water). The rats were then exposed to chronic hypoxia in a hypobaric chamber (barometric pressure, 410 mm Hg: inspired O2 tension, 76 mm Hg) for 3 weeks followed by an additional 6 weeks of reexposure to normoxia. Rats were examined at 9 weeks after the injection of SU5416 when they develop severe occlusive pulmonary arterial lesions (Abe, K. et al. Formation of plexiform lesions in experimental severe pulmonary arterial hypertension. Circulation 121, 2747-54 (2010)).
The following peptides were labeled with 5-carboxyfluorescein (FAM) and used for the lung targeting studies: CAR, CARSKNKDC (SEQ ID NO:147); VCAM1, […] (SEQ ID NO:13); CG7C control CGGGGGGGC (SEQ ID NO:14); CAR mutant (CAR-M), CAQSNNKDC (SEQ ID NO:15). Peptides were dissolved in PBS at the concentrations of 0.5 mg/mL. Hypertensive rats were injected with peptide solution through tail vein (3.3 mg/kg). At 2 hours after the injection, rats were perfused with PBS containing 1% bovine serum albumin under the deep anesthesia and tissues were fixed by systemic perfusion with 10% buffered formalin. […]

[3] = system: monocrotaline-induced PAH lesions; experiment: Peptide homing to lungs in monocrotaline-induced PAH rats (anti-FITC immunohistochemistry); format: in vivo, rat; settings: for accumulation of peptide in the PAH lungs: 2 hours after injection; for accumulation in the kidney: MCT-treated PAH rats and untreated healthy animals
Protocol: Monocrotaline (Sigma-Aldrich, St. Louis, Mo.) was dissolved in 0.3 M hydrochloride solution and neutralized with 0.3 M sodium hydroxide solution, and adjusted pH around 7.0. Adult male Sprague-Dawley rats (150-200 g, Harlan Laboratories, Indianapolis, Ind.) were administered with a single subcutaneous injection of monocrotaline solution at a dose of 60 mg/kg body weight, while control rats were administered with 0.9% saline (Bader, M. Rat models of cardiovascular diseases. Methods Mol Biol 597, 403-14 (2010)). Rats were randomly selected and studied for peptide targeting studies on 1, 3, 7, 14 or 21 days after the treatment of monocrotaline.
The following peptides were labeled with 5-carboxyfluorescein (FAM) and used for the lung targeting studies: CAR, CARSKNKDC (SEQ ID NO:147); VCAM1, CVHSPNKKCGGSK (SEQ ID NO:13); CG7C control CGGGGGGGC (SEQ ID NO:14); CAR mutant (CAR-M), CAQSNNKDC (SEQ ID NO:15). Peptides were dissolved in PBS at the concentrations of 0.5 mg/mL. Hypertensive rats were injected with peptide solution through tail vein (3.3 mg/kg). At 2 hours after the injection, rats were perfused with PBS containing 1% bovine serum albumin under the deep anesthesia and tissues were fixed by systemic perfusion with 10% buffered formalin. The organs were excised and fixed for additional 24 hours and processed for anti-fluorescein immunohistochemistry.
To determine the localization of the peptides, paraffin-embedded tissue sections were immunostained with rabbit anti-fluoroscein isothiocyanate (FITC) antibody (Invitrogen, Carlsbad, Calif.) followed by horseradish peroxidase-labeled anti-rabbit IgG secondary antibody. The peptide localization was then visualized by DAB. Sections were counter stained with hematoxylin to visualize the region of cells. An automated staining system, Discovery XT (Ventana, Tucson, Ariz.) was used for the staining. To examine the co-localization of the peptides with macrophages or alveolar type II cells, tissue sections were doubly stained with rabbit anti-FITC antibody and mouse anti-rat-CD68 antibody; EDI (Serotec, Raleigh, N.C.) or rabbit anti-Prosurfactant Protein C (proSP-C, Millipore, Temecula, Calif.), respectively. For FITC/proSP-C double staining, FITC staining was completed first. The tissues sections were then treated withcitrate buffer (pH 6.0) at 98° C. for 10 min before proceeding to proSP-C staining. Biotinylated species-specific secondary antibodies and alkaline phosphatase-labeled streptavidin (Vector Laboratories, Burlingame, Calif.) were used to visualize macrophages and alveolar type II cells with Permanent Red (Dako, Carpinteria, Calif.).
Images of stained slides were observed and captured with ECLIPSE 90i or 80i microscope with CCD camera DS-5M (Nikon Instruments, Melville, N.Y.). To quantify the targeting efficiency of the peptides to the lung, the immunostained sections were scanned by Aperio Scanscope XT and analyzed using ImageScope software (Aperio Technologies, Vista, Calif.). For the quantification of area and density of peptide staining, the Aperio Color Deconvolution tool was used to compare total peptide positive area and intensity of peptide staining in each animal. The thresholds were set empirically for strong, medium, and weak staining. The area of each level of staining was presented as percent of such area in the total cell area. The total stained area was normalized by hematoxylin stained area of same regions.
A rat model of monocrotaline (MCT)-induced pulmonary arterial hypertension was used for this study. Briefly, male Sprague-Dawley rats (150-200 g, Harlan Laboratories, IN) were administered with a single subcutaneous injection of monocrotaline at 60 mg/kg (Sigma-Aldrich, MO), while control rats administered 0.9% saline. Rats were randomly selected and studied for peptide distribution studies on 1, 3, 7, 14 or 21 days after the treatment of monocrotaline. […]

[4] = system: mitochondrial membranes; settings: at a concentration of 10 μM; cited from earlier work
[5] = MCT-treated rats, FAM-peptide 3.3 mg/kg i.v.

ARSKNK (5FAM-ARSKNK)
accumulation in tumor tissue ([1]; circulation time 1 hour): Little ARSKNK peptide accumulated in the tumor tissue | fluorescence in the heart ([1]; circulation time 1 hour): some fluorescence was detected in the heart

CAQSNNKDC (cysteine pairing not given here; also: labelled with FAM, site not given here) [CAR-M]
accumulation of peptide in PAH lungs / PAH lesion ([2]; 9 weeks after SU5416, FAM-peptide 3.3 mg/kg i.v., 2 hours): only negligible signal | detection in remodeled arteries from lung tissue ([2]; peptide 1 mg/300 g rat i.v. in hemodynamic study, anti-fluorescein staining): not

CVHSPNKKCGGSK (CVHSPNKKCGGSK-{5FAM″}; cysteine pairing not given here) [VCAM-1 binding peptide]
accumulation of peptide in the PAH lungs [3, 5]: accumulated in the PAH lungs to a similar extent to CAR | accumulation of peptide in healthy normal lung ([3]; non-MCT-treated rats, FAM-peptide 3.3 mg/kg i.v., 2 hours): a fair amount

C[C@@H]1NC(=O)[C@@H](NC(=O)c2ccc3c(c2)C(=O)OC32c3ccc(O)cc3Oc3cc(O)ccc32)CSSC[C@@H](C(=O)O)NC(=O)[C@H](CC(=O)O)NC(=O)[C@H](CCCCN)NC(=O)[C@H](CC(N)=O)NC(=O)[C@H](CCCCN)NC(=O)[C@H](CO)NC(=O)[C@H](CCCNC(=N)N)NC1=O [CAR, CARSKNKDC] (5FAM-CARSKNKDC-OH; disulfide 1-9)
accumulation in the kidney [3]: accumulation in the kidney was observed | accumulation in other organs ([3]; MCT-treated rats, organs other than lung, except kidney): absent or very weak

KNKSRAC-CARSKNK (disulfide I:7-II:1 (inferred); not fully specified (N-terminus); also: FAM label, position not given here) [dimeric tCAR]
accumulation in tumor tissue ([1]; circulation time 1 hour): less tumor accumulation than the monomeric tCAR peptide

CGGGGGGGC (5FAM-CGGGGGGGC; cysteine pairing not given here) [CG7C]
accumulation in the kidney [3]: also accumulated in the kidney | accumulation of peptide in the PAH lungs [3, 5]: only very weak staining

CARSKNK (also: FAM label, position not given here) [tCAR]
accumulation in normal tissues ([1]; circulation time 2 hours): not detectable accumulation | spreading within tumor tissue ([1]; circulation time 2 hours): wider spreading within tumor tissue than CAR

D(KLAKLAK)2 (KLAKLAKKLAKLAK; D-amino acids; membrane perturbing molecule)
mitochondrial swelling [4]: marked mitochondrial swelling
